Reference: patent publication EP1075186B1, “METHOD OF HSV PROPHYLAXIS” (The Children's Hospital Research Foundation, priority 1998, dated 1999)
Values after ≈ are worked out from the molar mass of the structure shown. Values joined by “and” are separate entries in the source; they are usually repeats but may differ in a detail not shown here. Identical values can stand only once.

Columns and labels:
HCMV [1] = conditions: Table 19
Description: (§1) Newborn human foreskin were obtained as soon as possible after circumcisions were performed and placed in minimal essential medium (MEM) containing vacomycin, fungizone, penicillin, and gentamycin, at the usual concentrations, for four hours. The medium was then removed, the foreskin minced into small pieces and washed repeatedly until red cells were no longer present. The tissue was then trypsinized using trypsin at 0.25% with continuous stirring for 15 minutes at 37°C in a CO2 incubator. At the end of each 15 minute period, the tissue was allowed to settle to the bottom of the flask. The supernatant containing cells was poured through sterile cheesecloth into a flask containing MEM and 10% fetal bovine serum. The flask containing the medium was kept on ice through out the trypsinizing procedure. After each addition of cells, the cheesecloth was washed with a small amount of MEM containing serum. Fresh trypsin was added each time to the foreskin pieces and the procedure repeated until no more cells became available. The cell containing medium was then centrifuged at 1000 RPM at 4°C for ten minutes. The supernatant liquid was discarded and the cells resuspended in a small amount of MEM with 10% FBS. The cells were then placed in an appropriate number of 25 cm^2 tissue culture flasks. As cells became confluent and needed trypsinization, they were gradually expanded into larger flasks. […]

HCMV [2] = assay: Plaque reduction assay, HCMV; format: cell-based; conditions: Human betaherpesvirus 5, Table 19
Description: (§2) Two days prior to use, HFF cells are plated into six well plates and incubated at 37°C with 5% CO2 and 90% humidity. On the date of assay, the drug is made up at twice the desired concentration in 2X MEM and then serially diluted 1:5 in 2X MEM using six concentrations of drug. The initial starting concentration isusually 200 µg/ml down to 0.06 µg/ml. The virus to be used is diluted in MEM containing 10% FBS to a desired concentration which will give 20 - 30 plaques per well. The media is then aspirated from the wells and 0.2 ml of virus is added to drug toxicity wells. The plates are then incubated for one hour with shaking every fifteen minutes. After the incubation period, an equal amount of 1% agarose was added to an equal volume of each drug dilution. This will give final drug concentrations beginning with 100 µg/ml and ending with 0.03 µg/ml and a final agarose overlay concentration of 0.5%. The drug agarose mixture is applied to each well in 2 ml volume and the plates then incubated for three days, after which the cells were stained with a 1.5 % solution of neutral red. At the end of 4-6 hr incubation period, the stain is aspirated, and plaques counted using a stereomicroscope at 10X magnification.
The procedure is essentially the same as for HSV analysis with the following minor changes. […]

HFF cells = assay: Cell proliferation assay; format: cell-based, human; conditions: Table 20; RAPIDLY GROWING CELLS
Description: On the day of the assay, drugs are diluted serially in MEM containing 10% FBS at increments of 1:5 covering a range from 100 μg/ml to 0.03 μg/ml. For drugs that have to be solubilized in DMSO, control wells […] MEM containing 10% DMSO. The media from the wells is then aspirated and 2 ml of each drug concentration is then added to each well. The cells are then incubated in a CO2 incubator at 37°C for 72 hours. At the end of this time, the media-drug solution is removed and the cells washed. […] The cell-media mixture is then pipetted up and down vigorously to break up the cell suspension and 0.2 ml of the mixture is added to 9.8 ml of Isoton III and counted using a Coulter Counter. Each sample is counted three times with three replicate wells per sample.

VZV = assay: Plaque reduction assay, VZV; format: cell-based; design: EC50 VZV Plaque: unit not given beside the values
Description: as §2, with “The media is then aspirated from the wells and 0.2 ml of virus is added to drug toxicity wells.” left out, “The drug agarose mixture is applied to each well in 2 ml volume and the plates then incubated for three days, after which the cells were stained with a 1.5 % solution of neutral red.” left out, “magnification. […] After addition of the drug, the plates are incubated for ten days. • 2. On days three and six an additional 1 ml overlay with equal amounts of 2X MEM and 1% agarose are added. The procedure for the liquid overlay plaque assay is similar to that using the agarose overlay. The procedure for adding the virus is the same as for the regular plaque assay. The drugs are made up in a concentration to be used in MEM with 2% FBS. […]” for “magnification.”

HSV-2 = assay: Cytopathic effect inhibition assay, HSV-2; format: cell-based; conditions: Human alphaherpesvirus 2; Table 19; read-out: EC50 HSV-2 CPE
Description: as §1

HSV-1 [3] = assay: Plaque reduction assay, HSV-1; format: cell-based; conditions: Human alphaherpesvirus 1; Table 19
Description: as §2, with “The media is then aspirated from the wells and 0.2 ml of virus is added to drug toxicity wells.” left out, “The drug agarose mixture is applied to each well in 2 ml volume and the plates then incubated for three days, after which the cells were stained with a 1.5 % solution of neutral red.” left out, “magnification. The procedure for the liquid overlay plaque assay is similar to that using the agarose overlay. The procedure for adding the virus is the same as for the regular plaque assay. The drugs are made up in a concentration to be used in MEM with 2% FBS. […] For CMV and VZV, no antibody in the overlay is utilized. For the CMV assay, additional medium without new drug is added on day six and allowed to incubate for a total of 11 days. […]” for “magnification.”

EBV = EBV screening test (IMN); format: cell-based; conditions: human gammaherpesvirus 4, Table 19
HSV-2 strain 186 = assay: Mouse genital HSV-2 model, intravaginal prophylaxis; format: in vivo, Swiss Webster mice; conditions: Table 21; for Virus Isolated / Dead: 2% intravaginal, one treatment just prior to HSV-2 challenge, 15 mice; for Virus Isolated: number of animals; for Dead: observed to day 21 PI
Description: Sixty female Swiss Webster mice pretreated with medroxyprogesterone acetate were randomized to four groups of 15 to receive either Saline (control), 2 % Acyclovir, 2 % Compound 96, or 0.5% Compound 96. Animals were anesthetized by intraperitoneal injection of sodium pentabarbital and then administered 15 µl of control or test compound intravaginally in one treatment. They were then immediately challenged by intravaginal instillation with 15 µl of a suspension containing 10^4 plaque forming units HSV-2 strain 186. Vaginal swabs were collected on days 1 and 2 post-inoculation (PI) to assess the effect of treatment on vaginal replication in the genital tract. In addition, all animals were examined daily until day 21 PI for mortality and signs of infection (erythema, hair loss and hind limb paralysis).

HSV-1 [4] = assay: Cytopathic effect inhibition assay, HSV-1; format: cell-based; conditions: Human alphaherpesvirus 1; Table 19; read-out: EC50 HSV-1 CPE
Description: as §1

[5] = 2%, mean log10 viral titers ± SEM, infected animals only

Nc1nc2c(ncn2COC(CO)CO)c(=O)[nH]1 [DHPG]
EC50 HCMV CPE (HCMV [1]): 0.8 µg/mL (≈ 3.13 µM)
EC50 (HCMV [2]): 0.7 µg/mL (≈ 2.74 µM)

O=c1[nH]c(=O)n([C@@H]2O[C@H](CO)[C@@H](O)[C@@H]2F)cc1I [FIAU, 2'-fluoro-5-iodo-arabinosyl-uracil]
TOXICITY ASSAYS - IC50 CELL PROLIFERATION (HFF cells): 3.3 MCG/ML and 8.4 MCG/ML

Nc1nc2c(ncn2COCCO)c(=O)[nH]1 [Acyclovir]
EC50 (VZV; Human alphaherpesvirus 3, Table 19): 3.2 µg/mL (≈ 14.2 µM)
EC50 VZV Plaque (VZV; Table 19, listed as ACV): 4.4 and 3.1 and 3.0
EC50 (HSV-2): 0.7 µg/mL (≈ 3.11 µM)
EC50 (HSV-1 [3]): 0.2 µg/mL (≈ 0.888 µM)
EC50 (EBV): 6 µg/mL (≈ 26.6 µM)
Virus Isolated (HSV-2 strain 186): 12
Virus Isolated (HSV-2 strain 186; listed as acyclovir): 12/15
Dead (HSV-2 strain 186): 12
Dead (HSV-2 strain 186; listed as acyclovir): 12/15
Vaginal Virus Titer Day 1 (HSV-2 strain 186; [5]): 1.96 ± 0.38 log10
Vaginal Virus Titer Day 2 (HSV-2 strain 186; [5]): 3.82 ± 0.38 log10
EC50 (HSV-1 [4]): 0.2 µg/mL (≈ 0.888 µM)
